“And” between values parts separate entries of the source, which are not always exact repeats. Identical values can stand only once. Like-named read-outs stand apart in the source and are kept apart here. Marks after values point to notes of the source that are not given here.
Key:
[1] = tested on: hCMEC/D3 mono-culture BBB model
[2] = tested on: triple co-culture BBB model (hCMEC/D3, U251 and SH-SY5Y cells)
[3] = in vitro; details: human
[4] = in vitro; details: human; remark: listed apart in the source
[5] = unbound fraction in brain, cited from earlier work
[6] = in situ brain perfusion in rodents, published permeability multiplied by VSA 150 cm^2/g, cited from earlier work
[7] = tested on: claudin-5; experiment: Western blot of claudin-5 expression in hCMEC/D3 cells; type: cell-based, Homo sapiens
Procedure: (§1) Whole-cell and tissue lysates, nucleoprotein, and cytoplasmic protein were prepared using RIPA Lysis Buffer (Beyotime, Shanghai, China) as the described method ([Wu et al., 2021]). Proteins were separated through sodium dodecyl sulfate–polyacrylamide gel electrophoresis and transferred onto nitrocellulose or polyvinylidene difluoride membranes. The membranes were blocked with 5% skim milk and incubated with corresponding primary antibodies at 4°C overnight. After being washed with Tris-buffered saline Tween buffer, the membranes were incubated with secondary antibodies (Cell Signaling Technology, MA, USA) at 1:3000 dilution: Anti-mouse IgG, HRP-linked Antibody (#7076), Anti-rabbit IgG, HRP-linked Antibody (#7074). Protein levels were visualized using a highly sensitive ECL western blotting substrate and a gel imaging system (Tanon Science & Technology, Shanghai, China).
(§2) CM of U251 cells (U-CM), SH-SY5Y cells (S-CM), or co-culture of U251 and SH-SY5Y cells (US-CM) was prepared. U251 cells were seeded at the top of the insert membrane and suspended on 6-well plates seeded with differentiated SH-SY5Y cells to co-culture U251 cells with SH-SY5Y cells. The medium was collected every 24 hr. The CMs were subsequently used for hCMEC/D3 cell culture after filtrating with 0.2 μm filters for 144 hr. The levels of GDNF, bFGF, IGF-1, and TGF-β in CMs were measured using corresponding ELISA kits according to the manufacturers’ instructions.
(§3) Exogenous and endogenous GDNF in the medium was neutralized with anti-GDNF antibody (#AF-212-NA, R&D system, Minneapolis, MN, USA). 0.25, 0.5, and 1.0 μg/ml anti-GDNF antibody was added into the US-CM or medium containing 200 pg/ml GDNF, and then the medium was preincubated at 4°C for 1 hr. The hCMEC/D3 cells were incubated with 200 pg/ml GDNF or US-CM containing anti-GDNF antibody or not for 6 days, and then cell lysate was collected for western blot. The medium was replaced every 24 hr.
(§4) Here, hCMEC/D3 cells were plated in the plates or culture dishes at 6 × 10^4 cells/cm^2 and transfected with 10 nM of negative control or human FOXO1, ETS1, and CDH5 siRNA (Tsingke Biotechnology, Beijing, China) for 12 hr using Lipofectamine 3000 (Invitrogen, Carlsbad, CA, USA) reagent according to the manufacturer’s instructions. Cells were then incubated with a medium containing GDNF for 72 hr.
The plasmids encoding FOXO1 (EX-Z7404-M02) were constructed by GeneCopoeia (Rockville, MD, USA). The hCMEC/D3 cells were plated in plates or dishes at 6 × 10^4 cells/cm^2. They were subsequently transfected with 1 µg of negative control or plasmids encoding FOXO1 6 hr using Lipofectamine 3000 reagent according to the manufacturer’s instructions. Transfected cells were then incubated with the medium containing GDNF for 72 hr.

[8] = tested on: VE-cadherin; experiment: Western blot of VE-cadherin expression in hCMEC/D3 cells; type: cell-based, Homo sapiens
Procedure: as §1, §2, §3, §4

[9] = tested on: hCMEC/D3 cells; experiment: EdU incorporation assay; type: cell-based, Homo sapiens; details: for EdU incorporation, EdU + fraction / EdU incorporation, EdU − fraction: 6 days
Procedure: The cells were incubated with medium containing 10 μM Edu for 2 hr. […] The EdU incorporation assay was measured using the BeyoClick EdU Cell Proliferation Kit (Beyotime Biotechnology, Shanghai, China) according to the manufacturer’s instructions. The samples were determined on the FACSCelesta flow cytometer (Becton, Dickins on and Company, USA), and data were analyzed by Flowjo 10.4 software.

[10] = tested on: triple co-culture BBB model (hCMEC/D3, U251 and SH-SY5Y cells); experiment: In vitro BBB permeability study (Papp), triple co-culture BBB model
[11] = tested on: hCMEC/D3 mono-culture BBB model; experiment: In vitro BBB permeability study (Papp), hCMEC/D3 mono-culture BBB model
[12] = tested on: hCMEC/D3 mono-culture BBB model; experiment: TEER of hCMEC/D3 mono-culture BBB model; type: cell-based, Homo sapiens; details: hCMEC/D3 mono-culture, 200 pg/ml GDNF, day 6; 3 μM SPP-86 or 5 μM PP2
[13] = tested on: triple co-culture BBB model (hCMEC/D3, U251 and SH-SY5Y cells); experiment: TEER of triple co-culture BBB model; type: cell-based, Homo sapiens; details: for TEER: Triple+PP2, single replicates, Figure 2S
Procedure: The establishment process of the triple co-culture model is illustrated in Figure 9. SH-SY5Y cells were seeded at a density of 4.5 × 10^4 cells/cm^2 in plates and differentiated with 10 μM retinoic acid (Sigma-Aldrich, St. Louis, MO, USA) for 72 hr. The differentiated SH-SY5Y cells were cultured in the fresh DMEM/F12 medium containing 10% FBS. U251 cells were seeded at 2 × 10^4 cells/cm^2 on the bottom of Transwell inserts (PET, 0.4 µm pore size, SPL Life Sciences, Pocheon, Korea) coated with rat-tail collagen (Corning Inc, Corning, NY, USA). Next, the inserts were suspended in plate wells containing the culture medium after 5 hr of incubation. After 24 hr of incubation, hCMEC/D3 cells were seeded on the apical side of the inserts at 3 × 10^4 cells/cm^2 and cultured for another 48 hr. Then, the inserts seeded with U251 and hCMEC/D3 cells were suspended in plates seeded with differentiated SH-SY5Y cells and co-cultured for another 6 days. The culture medium was replaced every 24 hr. TEER was periodically measured using a Millicell-ERS (MERS00002) instrument (Millipore, Billerica MA, USA) to monitor cell confluence and development of TJs.

[14] = hCMEC/D3 cells incubated with conditioned medium or neurotrophic factor vs normal medium
[15] = hCMEC/D3 cells, 200 pg/ml GDNF, 3 μM SPP-86, 5 μM PP2, 3 μM LY294002, 2 μM U0126, 5 μM SP600125, 2 μM SB203580, anti-GDNF antibody 0.25, 0.5, 1.0 μg/ml
[16] = hCMEC/D3 cells, US-CM, 3 μM SPP-86, 5 μM PP2, 3 μM LY294002, 2 μM U0126, anti-GDNF antibody 0.25, 0.5, 1.0 μg/ml

PSPre, Mono ([1]; human)	PS ([1]; human, 30 min) [µL/min/g]	PS ([2]; human, 30 min) [µL/min/g]	Papp A→B at 30 min ([3]; Papp, Mono) [×10⁻⁶ cm/s]	Papp A→B at 30 min ([4]; Papp, Triple) [×10⁻⁶ cm/s]	Papp A→B at 30 min ([3]; Papp Mean) [×10⁻⁶ cm/s]	Molecule	PSObs ([6]; ref Summerfield et al., 2007)	fu, brain ([5]; ref Summerfield et al., 2007)	also measured
310.22 µL/min/g	310.22	165.23	6.84 ± 0.95	3.64 ± 0.26	–	NC12CC3CC(CC(C3)C1)C2 [Amantadine]	116.10^† μl/min/g	–	Papp A→B at 30 min ([4]; Papp (individual replicate)): 3.04 ×10⁻⁶ cm/s; fu, brain ([5]; ref Esaki et al., 2019): 0.1985^*
25,052.57 μl/min/g	25052.57	8272.72	39 ± 0.54	12.9 ± 2.06	–	CN1CCN(C2=Nc3cc(Cl)ccc3Nc3ccccc32)CC1 [Clozapine]	–	–	Papp A→B at 30 min ([3]; Papp (individual replicate)): 38.9 ×10⁻⁶ cm/s; fu, brain ([5]; ref Bhyrapuneni et al., 2018): 0.0056; fu, brain ([5]; ref Cremers et al., 2012): 0.014^**
2666.89 µL/min/g	2666.89	908.69	34.4 ± 1.26	11.7 ± 0.15	–	NC(=O)N1c2ccccc2C=Cc2ccccc21 [Carbamazepine]	959.40^† μl/min/g	–	fu, brain ([5]; ref Maurer et al., 2005): 0.116^¶
–	–	–	–	–	–	bFGF: basic fibroblast growth factor, recombinant protein	–	–	claudin-5 expression [7, 14]: without affecting; VE-cadherin expression [8, 14]: without affecting; EdU incorporation, EdU + fraction ([9]; bFGF 6 ng/mL): 21.1; EdU incorporation, EdU − fraction ([9]; bFGF 6 ng/mL): 78.9; EdU incorporation, EdU + fraction ([9]; bFGF 20 ng/mL): 28.3; EdU incorporation, EdU − fraction ([9]; bFGF 20 ng/mL): 71.7; EdU incorporation, EdU + fraction ([9]; bFGF 60 ng/mL): 31.0; EdU incorporation, EdU − fraction ([9]; bFGF 60 ng/mL): 69.0; cell proliferation ([9]; bFGF (6, 20, and 60 ng/ml) for 6 days, EdU incorporation and cell viability): increased cell proliferation
–	–	–	–	–	–	CC(NC(C)(C)C)C(=O)c1cccc(Cl)c1 (centres unmarked) [Buproprion]	–	–	PS [1]: 1139.58 µL/min/g; PS [2]: 850.58 µL/min/g; Papp A→B ([10]; read-out: Papp Mean, Triple co-culture BBB model, mean of 4 replicates): 11.3 ×10⁻⁶ cm/s; Papp A→B ([11]; read-out: Papp Mean, Mono-culture BBB Model, mean of 4 replicates): 15.2 ×10⁻⁶ cm/s
2637.00 µL/min/g	2637.00	2009.25	23.4 ± 0.44	17.9 ± 0.21	–	CN1CCN2c3ncccc3Cc3ccccc3C2C1 (centres unmarked) [Mirtazapine]	1912.50^† μl/min/g	0.08^†	–
348.66 µL/min/g	348.66	163.41	14.1 ± 1.44	–	14.1	CCN(CC)CCNC(=O)c1cc(Cl)c(N)cc1OC [Metoclopramide]	125.10^† μl/min/g	0.365^†	–
–	–	–	–	–	–	CC(C)(C)n1nc(-c2ccc(Cl)cc2)c2c(N)ncnc21 [PP2]	–	–	GDNF-increased TEER values, effect of inhibitor [12]: almost abolished; TEER ([13]; Day3): 61.05 Ω·cm2 and 61.38 Ω·cm2 and 59.07 Ω·cm2 and 63.36 Ω·cm2; TEER ([13]; Day4): 66.66 Ω·cm2 and 65.01 Ω·cm2 and 64.68 Ω·cm2 and 62.04 Ω·cm2; TEER ([13]; Day5): 81.51 Ω·cm2 and 78.21 Ω·cm2 and 77.88 Ω·cm2 and 76.89 Ω·cm2; TEER ([13]; Day6): 78.21 Ω·cm2 and 80.19 Ω·cm2 and 76.23 Ω·cm2 and 79.2 Ω·cm2; increased TEER values in the triple co-culture BBB model, effect of inhibitor ([13]; day 6, 3 μM SPP-86 or 5 μM PP2): completely reversed; GDNF-induced claudin-5 expression [7, 15]: markedly attenuated; US-CM-induced claudin-5 expression [7, 16]: markedly attenuated; GDNF-induced VE-cadherin expression [8, 15]: markedly attenuated; US-CM-induced VE-cadherin expression [8, 16]: markedly attenuated; decreased permeability of fluorescein and FITC-Dex in the triple co-culture BBB model, effect of inhibitor ([10]; 3 μM SPP-86 or 5 μM PP2): completely reversed; GDNF-decreased permeability of fluorescein and FITC-Dex, effect of inhibitor ([11]; hCMEC/D3 mono-culture, 200 pg/ml GDNF, 3 μM SPP-86 or 5 μM PP2): almost abolished
6076.80 µL/min/g	6076.80	3837.60	16.9 ± 1.08	–	16.9	CN(C)CCC=C1c2ccccc2COc2ccccc21 [Doxepin]	2192.40^† μl/min/g	0.025^†	–

Molecule	PSPre, Mono ([1]; human)	PS ([1]; human, 30 min) [µL/min/g]	PS ([2]; human, 30 min) [µL/min/g]	Papp A→B at 30 min ([3]; Papp, Mono) [×10⁻⁶ cm/s]	Papp A→B at 30 min ([4]; Papp, Triple) [×10⁻⁶ cm/s]	Papp A→B at 30 min ([3]; Papp Mean) [×10⁻⁶ cm/s]	PSObs ([6]; ref Summerfield et al., 2007)	fu, brain ([5]; ref Summerfield et al., 2007)	also measured
CN(C)CCC=C1c2ccccc2CCc2ccccc21 [Amitriptyline]	13,716.00 μl/min/g	13716.00	13149.00	15.2 ± 0.64	14.6 ± 0.27	15.2	–	–	PSPre, Triple ([2]; human): 13,149.00 μl/min/g; Papp A→B at 30 min ([3]; Papp (individual replicate)): 16.6 ×10⁻⁶ cm/s; Papp A→B at 30 min ([4]; Papp (individual replicate)): 14 ×10⁻⁶ cm/s; Papp A→B at 30 min ([4]; Papp Mean): 14.6 ×10⁻⁶ cm/s; fu, brain ([5]; ref Fridén et al., 2011): 0.01^‡; fu, brain ([5]; ref Sánchez-Dengra et al., 2021): 0.002; fu, brain ([5]; ref Weber et al., 2013): 0.0071; PSObs ([6]; ref Avdeef and Sun, 2011): 4608.00^*** μl/min/g

— publication PMC11524583, “Neurons enhance blood–brain barrier function via upregulating claudin-5 and VE-cadherin expression due to glial cell line-derived neurotrophic factor secretion” (eLife, 2024)
